Experimental data taken from patent publication US20250320193A1, “OXOISOINDOLINYL SUBSTITUTED PIPERIDINEDIONE DERIVATIVE AND USE THEREOF” (GLUETACS THERAPEUTICS (SHANGHAI) CO., LTD., priority 2022, published 2025).

Columns and labels:
[1] = molecular target: IKZF1 (Homo sapiens (Human), UniProt Q13422+Q96SW2); test: Western blot, substrate protein expression in hPBMC: IKZF1; assay type: cell-based; details: hPBMC, compound 500 nM, 24 hours, Western blot
In short: (§1)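 hPBMC, 1×10^6 cells/mL, 24 h compound exposure; RIPA lysis, BCA protein assay, SDS-PAGE, NC membrane immunoblot. Densitometry vs internal control → % protein remaining; degradation % = 100% − remaining; DC50 = conc. at 50% of DMSO band signal.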

[2] = molecular target: IKZF3 (Homo sapiens (Human), UniProt Q96SW2+Q9UKT9); test: Western blot, substrate protein expression in hPBMC: IKZF3; assay type: cell-based; details: hPBMC, compound 500 nM, 24 hours, Western blot
IKZF3, sequence (Q9UKT9 whole entry): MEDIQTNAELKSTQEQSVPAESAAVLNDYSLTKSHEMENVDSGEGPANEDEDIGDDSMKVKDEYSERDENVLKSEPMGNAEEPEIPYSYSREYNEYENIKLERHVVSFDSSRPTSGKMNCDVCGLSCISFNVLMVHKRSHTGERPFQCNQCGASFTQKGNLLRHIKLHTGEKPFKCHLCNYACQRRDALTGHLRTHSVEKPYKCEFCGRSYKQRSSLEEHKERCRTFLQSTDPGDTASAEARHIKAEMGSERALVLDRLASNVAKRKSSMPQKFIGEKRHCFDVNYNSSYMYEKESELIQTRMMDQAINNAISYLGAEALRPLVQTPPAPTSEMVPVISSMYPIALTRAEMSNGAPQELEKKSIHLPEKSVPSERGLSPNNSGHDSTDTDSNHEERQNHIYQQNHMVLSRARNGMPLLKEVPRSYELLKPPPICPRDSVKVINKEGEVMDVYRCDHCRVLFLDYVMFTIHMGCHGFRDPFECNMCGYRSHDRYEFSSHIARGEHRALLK
IKZF3, sequence (Q96SW2 whole entry): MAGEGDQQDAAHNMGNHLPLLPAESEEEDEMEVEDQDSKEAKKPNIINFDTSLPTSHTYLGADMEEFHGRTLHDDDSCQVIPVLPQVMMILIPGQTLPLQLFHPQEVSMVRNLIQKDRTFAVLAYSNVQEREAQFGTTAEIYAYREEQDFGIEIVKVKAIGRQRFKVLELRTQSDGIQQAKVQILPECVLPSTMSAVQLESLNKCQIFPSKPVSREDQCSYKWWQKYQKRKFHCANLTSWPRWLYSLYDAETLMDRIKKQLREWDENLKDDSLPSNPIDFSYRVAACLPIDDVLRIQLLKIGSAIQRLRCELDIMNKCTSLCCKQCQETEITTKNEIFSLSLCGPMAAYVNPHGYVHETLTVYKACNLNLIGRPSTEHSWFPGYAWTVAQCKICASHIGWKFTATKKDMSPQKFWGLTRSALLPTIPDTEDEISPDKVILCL
IKZF3, sequence (Q16531 whole entry partner): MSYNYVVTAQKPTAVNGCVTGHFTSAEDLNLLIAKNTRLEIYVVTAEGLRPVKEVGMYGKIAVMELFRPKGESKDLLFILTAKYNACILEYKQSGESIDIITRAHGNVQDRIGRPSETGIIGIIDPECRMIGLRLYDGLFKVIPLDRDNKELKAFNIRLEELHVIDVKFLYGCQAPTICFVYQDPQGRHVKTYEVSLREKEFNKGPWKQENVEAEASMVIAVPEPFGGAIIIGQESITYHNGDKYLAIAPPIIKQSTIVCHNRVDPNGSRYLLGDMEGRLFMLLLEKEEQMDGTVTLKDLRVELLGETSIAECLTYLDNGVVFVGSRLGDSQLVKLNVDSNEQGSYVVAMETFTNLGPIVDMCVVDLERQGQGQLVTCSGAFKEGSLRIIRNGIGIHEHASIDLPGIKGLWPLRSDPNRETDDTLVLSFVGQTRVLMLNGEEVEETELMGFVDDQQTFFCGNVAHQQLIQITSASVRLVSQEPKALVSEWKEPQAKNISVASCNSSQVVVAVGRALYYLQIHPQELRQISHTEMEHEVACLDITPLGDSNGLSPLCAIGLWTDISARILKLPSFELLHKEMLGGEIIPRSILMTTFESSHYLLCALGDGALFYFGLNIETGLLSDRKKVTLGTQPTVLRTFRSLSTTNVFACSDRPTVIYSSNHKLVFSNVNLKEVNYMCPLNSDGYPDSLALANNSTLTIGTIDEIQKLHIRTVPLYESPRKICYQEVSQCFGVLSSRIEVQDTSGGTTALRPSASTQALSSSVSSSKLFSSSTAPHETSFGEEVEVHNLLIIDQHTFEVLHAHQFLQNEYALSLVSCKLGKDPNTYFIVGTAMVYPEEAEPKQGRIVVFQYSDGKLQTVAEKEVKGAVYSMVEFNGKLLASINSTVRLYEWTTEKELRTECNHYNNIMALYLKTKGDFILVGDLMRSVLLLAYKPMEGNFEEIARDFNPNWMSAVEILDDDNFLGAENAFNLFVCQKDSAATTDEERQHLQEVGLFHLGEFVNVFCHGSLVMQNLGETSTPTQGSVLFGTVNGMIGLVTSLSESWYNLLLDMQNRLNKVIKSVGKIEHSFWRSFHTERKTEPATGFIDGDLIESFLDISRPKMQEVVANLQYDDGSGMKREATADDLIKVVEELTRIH
In short: as §1

[3] = molecular target: GSPT1 (Homo sapiens (Human), UniProt P15170+Q96SW2); test: Western blot, substrate protein expression in hPBMC: GSPT1; assay type: cell-based; details: hPBMC, compound 500 nM, 24 hours, Western blot
GSPT1, sequence (P15170 whole entry): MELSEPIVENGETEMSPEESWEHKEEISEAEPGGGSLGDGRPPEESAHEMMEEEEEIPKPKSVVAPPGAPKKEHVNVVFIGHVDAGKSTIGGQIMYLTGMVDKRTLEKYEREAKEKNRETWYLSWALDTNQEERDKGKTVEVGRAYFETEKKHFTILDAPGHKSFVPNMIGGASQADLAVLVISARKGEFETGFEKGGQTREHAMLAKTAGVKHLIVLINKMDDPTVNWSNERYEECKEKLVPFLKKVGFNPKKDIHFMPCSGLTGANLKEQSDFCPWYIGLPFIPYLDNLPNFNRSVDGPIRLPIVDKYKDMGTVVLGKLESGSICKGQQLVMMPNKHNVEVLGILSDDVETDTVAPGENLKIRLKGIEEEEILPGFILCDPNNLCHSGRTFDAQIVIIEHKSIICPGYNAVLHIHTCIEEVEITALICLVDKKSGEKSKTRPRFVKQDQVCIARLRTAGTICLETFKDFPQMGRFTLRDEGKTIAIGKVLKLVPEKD
GSPT1, sequence (Q96SW2 whole entry): as the sequence (Q96SW2 whole entry) above
GSPT1, sequence (Q16531 whole entry partner): as the sequence (Q16531 whole entry partner) above
In short: as §1

[4] = molecular target: human Cereblon WT GST-tagged protein (Homo sapiens (Human), UniProt Q96SW2); test: CRBN-binding affinity, HTRF (CEREBLON BINDING kit, CISBIO); details: HTRF inhibitory activity
human Cereblon WT GST-tagged protein, sequence (Q96SW2 whole entry): as the sequence (Q96SW2 whole entry) above
In short: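 Compounds were mixed with GST-tagged human Cereblon WT protein, then with Thalidomide-Red tracer and GST Eu antibody, and binding was read by HTRF. Inhibition rate was calculated from 620 nm emission relative to blank control wells (no protein) and solvent control wells.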

IKZF1, sequence (Q13422 whole entry): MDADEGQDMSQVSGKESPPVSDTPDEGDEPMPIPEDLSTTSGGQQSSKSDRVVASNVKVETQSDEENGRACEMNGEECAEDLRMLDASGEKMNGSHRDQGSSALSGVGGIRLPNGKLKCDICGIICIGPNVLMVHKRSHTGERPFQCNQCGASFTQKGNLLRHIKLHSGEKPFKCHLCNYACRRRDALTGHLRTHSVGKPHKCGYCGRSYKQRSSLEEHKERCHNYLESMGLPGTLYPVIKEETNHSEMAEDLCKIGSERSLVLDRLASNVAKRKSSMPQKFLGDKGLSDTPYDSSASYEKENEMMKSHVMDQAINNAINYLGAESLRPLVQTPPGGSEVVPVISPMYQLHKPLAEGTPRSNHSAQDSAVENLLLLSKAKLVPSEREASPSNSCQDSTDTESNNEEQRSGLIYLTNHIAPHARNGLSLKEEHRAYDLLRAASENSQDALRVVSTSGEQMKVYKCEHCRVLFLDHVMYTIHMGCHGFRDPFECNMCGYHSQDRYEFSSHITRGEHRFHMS
IKZF1, sequence (Q96SW2 whole entry): as the sequence (Q96SW2 whole entry) above
IKZF1, sequence (Q16531 whole entry partner): as the sequence (Q16531 whole entry partner) above

| IC50 [4] [nM] | SMILES | substrate protein remaining % IKZF1 [1] | substrate protein remaining % IKZF3 [2] | substrate protein remaining % GSPT1 [3] |
| --- | --- | --- | --- | --- |
| < 500 | O=C1CCC(N2Cc3cc(CN4CCN(C(c5ccc(F)cc5)c5ccc(F)cc5)CC4)cc(F)c3C2=O)C(=O)N1 (stereo not shown) [GT-03565, 3-(5-((4-(bis(4-fluorophenyl)methyl)piperazin-1-yl)methyl)-7-fluoro-1-oxoisoindolin-2-yl)piperidine-2,6-dione] | B (B represents substrate protein remaining % > 50%) | B (B represents substrate protein remaining % > 50%) | A (A represents 0% ≤ substrate protein remaining % ≤ 50%) |
| 1000 to 1900 | O=C1CCC(N2Cc3c(ccc(CN4CCN(C(c5ccc(Cl)cc5)c5ccc(Cl)cc5)CC4)c3F)C2=O)C(=O)N1 (stereo not shown) [GT-03567, 3-(5-((4-(bis(4-chlorophenyl)methyl)piperazin-1-yl)methyl)-4-fluoro-1-oxoisoindolin-2-yl)piperidine-2,6-dione] | B (B represents substrate protein remaining % > 50%) | A (A represents 0% ≤ substrate protein remaining % ≤ 50%) | A (A represents 0% ≤ substrate protein remaining % ≤ 50%) |
| < 500 | O=C1CCC(N2Cc3cc(CN4C[C@H]5C[C@@H]4CN5C(c4ccccc4)c4ccccc4)ccc3C2=O)C(=O)N1 (stereo partly drawn) [GT-03570, 3-(5-(((1R,4R)-5-benzhydryl-2,5-diazabicyclo[2.2.1]heptan-2-yl)methyl)-1-oxoisoindolin-2-yl)piperidine-2,6-dione] | B (B represents substrate protein remaining % > 50%) | B (B represents substrate protein remaining % > 50%) | A (A represents 0% ≤ substrate protein remaining % ≤ 50%) |
| < 500 | C[C@@H]1CN(C(c2ccccc2)c2ccccc2)CCN1Cc1ccc2c(c1)CN(C1CCC(=O)NC1=O)C2=O (stereo partly drawn) [GT-03571, 3-(5-(((R)-4-benzhydryl-2-methylpiperazin-1-yl)methyl)-1-oxoisoindolin-2-yl)piperidine-2,6-dione] | B (B represents substrate protein remaining % > 50%) | B (B represents substrate protein remaining % > 50%) | A (A represents 0% ≤ substrate protein remaining % ≤ 50%) |
| 500 to 1000 | C[C@@H]1CN(C(c2ccccc2)c2ccccc2)CCN1Cc1ccc2c(c1F)CN(C1CCC(=O)NC1=O)C2=O (stereo partly drawn) [GT-03574, 3-(5-(((R)-4-benzhydryl-2-methylpiperazin-1-yl)methyl)-4-fluoro-1-oxoisoindolin-2-yl)piperidine-2,6-dione] | B (B represents substrate protein remaining % > 50%) | B (B represents substrate protein remaining % > 50%) | A (A represents 0% ≤ substrate protein remaining % ≤ 50%) |
| 500 to 1000 | O=C1CCC(N2Cc3c(CN4CCN(C(c5ccc(F)cc5)c5ccc(F)cc5)CC4)cccc3C2=O)C(=O)N1 (stereo not shown) [GT-03647, 3-(4-((4-(bis(4-fluorophenyl)methyl)piperazin-1-yl)methyl)-1-oxoisoindolin-2-yl)piperidine-2,6-dione] | B (B represents substrate protein remaining % > 50%) | B (B represents substrate protein remaining % > 50%) | A (A represents 0% ≤ substrate protein remaining % ≤ 50%) |
| < 500 | O=C1CCC(N2Cc3cc(CN4C[C@@H]5C[C@H]4CN5C(c4ccccc4)c4ccccc4)ccc3C2=O)C(=O)N1 (stereo partly drawn) [GT-03721, 3-(5-(((1S,4S)-5-benzhydryl-2,5-diazabicyclo[2.2.1]heptan-2-yl)methyl)-1-oxoisoindolin-2-yl)piperidine-2,6-dione] | B (B represents substrate protein remaining % > 50%) | A (A represents 0% ≤ substrate protein remaining % ≤ 50%) | A (A represents 0% ≤ substrate protein remaining % ≤ 50%) |
|  | O=C1CCC(N2C(=O)c3ccc(C(=O)N4CCN(C(c5ccc(C(F)(F)F)cc5)c5ccc(C(F)(F)F)cc5)CC4)cc3C2=O)C(=O)N1 (stereo not shown) [GT-06217, 5-(4-(bis(4-(trifluoromethyl)phenyl)methyl)piperazine-1-carbonyl)-2-(2,6-dioxopiperidin-3-yl) isoindoline-1,3-dione] | B (B represents substrate protein remaining % > 50%) | B (B represents substrate protein remaining % > 50%) | A (A represents 0% ≤ substrate protein remaining % ≤ 50%) |
|  | CC1(C)CN(C(=O)c2ccc3c(c2)C(=O)N(C2CCC(=O)NC2=O)C3=O)CCN1C(c1ccccc1)c1ccccc1 (stereo not shown) [GT-06278, 5-(4-benzhydryl-3,3-dimethylpiperazine-1-carbonyl)-2-(2,6-dioxopiperidin-3-yl) isoindoline-1,3-dione] | B (B represents substrate protein remaining % > 50%) | B (B represents substrate protein remaining % > 50%) | A (A represents 0% ≤ substrate protein remaining % ≤ 50%) |
|  | O=C1CCC(N2Cc3cc(CN4CCN(C(c5ccc(OCc6ccccc6)cc5)c5ccc(OCc6ccccc6)cc5)CC4)ccc3C2=O)C(=O)N1 (stereo not shown) [GT-06424, 3-(5-((4-(bis(4-(benzyloxy)phenyl)methyl)piperazin-1-yl)methyl)-1-oxoisoindolin-2-yl)piperidine-2,6-dione] | B (B represents substrate protein remaining % > 50%) | A (A represents 0% ≤ substrate protein remaining % ≤ 50%) | A (A represents 0% ≤ substrate protein remaining % ≤ 50%) |
|  | O=C1CCC(N2C(=O)c3ccc(CN4CCN(C(c5ccc(OCc6ccccc6)cc5)c5ccc(OCc6ccccc6)cc5)CC4)cc3C2=O)C(=O)N1 (stereo not shown) [GT-06425, 5-((4-(bis(4-(benzyloxy)phenyl)methyl)piperazin-1-yl)methyl)-2-(2,6-dioxopiperidin-3-yl) isoindoline-1,3-dione] | B (B represents substrate protein remaining % > 50%) | A (A represents 0% ≤ substrate protein remaining % ≤ 50%) | A (A represents 0% ≤ substrate protein remaining % ≤ 50%) |
|  | O=C1CCC(N2C(=O)c3ccc(C(=O)N4CCN(C(c5ccc(OCc6ccccc6)cc5)c5ccc(OCc6ccccc6)cc5)CC4)cc3C2=O)C(=O)N1 (stereo not shown) [GT-06558, 5-(4-(bis(4-(benzyloxy)phenyl)methyl)piperazine-1-carbonyl)-2-(2,6-dioxopiperidin-3-yl) isoindoline-1,3-dione] | A (A represents 0% ≤ substrate protein remaining % ≤ 50%) | B (B represents substrate protein remaining % > 50%) | A (A represents 0% ≤ substrate protein remaining % ≤ 50%) |
|  | O=C1CCC(N2C(=O)c3ccc(C(=O)N4CCN(C(c5cc(F)cc(F)c5)c5cc(F)cc(F)c5)CC4)cc3C2=O)C(=O)N1 (stereo not shown) [GT-06598, 5-(4-(bis(3,5-difluorophenyl)methyl)piperazine-1-carbonyl)-2-(2,6-dioxopiperidin-3-yl) isoindoline-1,3-dione] | B (B represents substrate protein remaining % > 50%) | B (B represents substrate protein remaining % > 50%) | A (A represents 0% ≤ substrate protein remaining % ≤ 50%) |
|  | O=C1CCC(N2C(=O)c3ccc(CN4CCN(C(c5ccccc5)c5ccc(Br)cc5)CC4)cc3C2=O)C(=O)N1 (stereo not shown) [GT-06639, 5-((4-((4-bromophenyl) (phenyl)methyl)piperazin-1-yl)methyl)-2-(2,6-dioxopiperidin-3-yl) isoindoline-1,3-dione] | A (A represents 0% ≤ substrate protein remaining % ≤ 50%) | A (A represents 0% ≤ substrate protein remaining % ≤ 50%) | A (A represents 0% ≤ substrate protein remaining % ≤ 50%) |

| SMILES | IC50 [4] [nM] | substrate protein remaining % IKZF1 [1] | substrate protein remaining % IKZF3 [2] | substrate protein remaining % GSPT1 [3] |
| --- | --- | --- | --- | --- |
| O=C1CCC(N2Cc3cc(CN4C5CC4CN(C(c4ccccc4)c4ccccc4)C5)ccc3C2=O)C(=O)N1 (stereo not shown) [GT-03569, 3-(5-((3-benzhydryl-3,6-diazabicyclo[3.1.1]heptan-6-yl)methyl)-1-oxoisoindolin-2-yl)piperidine-2,6-dione] | 500 to 1000 | B (B represents substrate protein remaining % > 50%) | A (A represents 0% ≤ substrate protein remaining % ≤ 50%) | A (A represents 0% ≤ substrate protein remaining % ≤ 50%) |
| O=C1CCC(N2Cc3cc(CN4C5CC4CN(C(c4ccccc4)c4ccccc4)C5)cc(F)c3C2=O)C(=O)N1 (stereo not shown) [GT-03575, 3-(5-((3-benzhydryl-3,6-diazabicyclo[3.1.1]heptan-6-yl)methyl)-7-fluoro-1-oxoisoindolin-2-yl)piperidine-2,6-dione] | 500 to 1000 | B (B represents substrate protein remaining % > 50%) | B (B represents substrate protein remaining % > 50%) | A (A represents 0% ≤ substrate protein remaining % ≤ 50%) |
| O=C1CCC(N2Cc3cc(CN4CC5CCC(C4)N5C(c4ccccc4)c4ccccc4)ccc3C2=O)C(=O)N1 (stereo not shown) [GT-03722, 3-(5-((8-benzhydryl-3,8-diazabicyclo[3.2.1]octan-3-yl)methyl)-1-oxoisoindolin-2-yl)piperidine-2,6-dione] | < 500 | A (A represents 0% ≤ substrate protein remaining % ≤ 50%) | A (A represents 0% ≤ substrate protein remaining % ≤ 50%) | A (A represents 0% ≤ substrate protein remaining % ≤ 50%) |
